In patent US20080161219A1, “CLATHRATES OF AN ORGANOSILANE QUATERNARY AMMONIUM COMPOUND AND UREA AND METHODS OF USE” (priority 2007, published 2008):

Assays:
[1] = Solubility / stability against decomposition in chloroform; assay type: physicochemical
Description: The following experiments were conducted to determine if the clathrate compositions of this invention would be decomposed by chloroform (a strong solvent).
7.51 grams of urea were slurried in a beaker with 75.4 grams of chloroform by magnetic stirring for 10 minutes. The slurry was then filtered by gravity through filter paper. The filtrate was employed to rinse the beaker to remove all solids and the rinse added to the filter cake. The filtrate was then evaporated in a tared beaker and a residue of 0.01 grams obtained (which was within experimental error). From this experiment, it can be concluded that urea was insoluble in chloroform.
10.21 grams of Example 7, Table 1 organosilane quaternary clathrate was slurried as above in 75 grams of chloroform for 10 minutes and the slurry filtered as above and the filtrate evaporated to dryness. A waxy residue of 0.07 grams remained in the beaker.
It can be concluded that this residue was not the organosilane quaternary. The solids that were filtered were dried to constant weight. 10.24 grams were recovered. 10.21 grams of the clathrate had been added. The difference of +0.03 grams was within experimental error. It can be concluded that the clathrate was not soluble in chloroform and that the organosilane quaternary was not extracted from the clathrate by the chloroform.

[2] = Dissolving clathrate in deionized water (appearance of mixture); assay type: physicochemical; details: 6.4 gms clathrate in 800 ml deionized water (pH=3), shaken; 0.2% quat, 0.6% urea
Description: Clean and shield compositions were prepared by dissolving 6.4 gms of each urea clathrate of Examples 4 and 7 from Table 1 in 800 ml of deionized water (pH=3) by shaking in a plastic bottle. The resulting solutions contained 0.2% organosilane quaternary compound and 0.6% urea.

Structure (SMILES)	residue of evaporated chloroform filtrate [1]	solubility in chloroform [1]	appearance of solution [2]
NC(N)=O [urea]	0.01 grams	insoluble	
CCCCCCCCCCCCCCCCCC[N+](C)(C)CCC[Si](OC)(OC)OC.[Cl-] [Example 7, 3-(trimethoxysilyl)propyldimethyloctadecyl ammonium chloride]			clear
